Results reported in paper PMC3463139 (Journal of medicinal chemistry, 2012).
Where two headings read alike, the source gives them in different places. Blank lines part the entries; values can stand above or below the compound they belong to.

How the values were obtained:
hA1AR [1] = molecular target: T1, hA1AR (Homo sapiens, UniProt P30542); test: Radioligand binding at hA1AR; conditions: for AR subtype selectivity in binding (in words): A1, A2A and A3 ARs compared
T1 sequence (P30542 1-326): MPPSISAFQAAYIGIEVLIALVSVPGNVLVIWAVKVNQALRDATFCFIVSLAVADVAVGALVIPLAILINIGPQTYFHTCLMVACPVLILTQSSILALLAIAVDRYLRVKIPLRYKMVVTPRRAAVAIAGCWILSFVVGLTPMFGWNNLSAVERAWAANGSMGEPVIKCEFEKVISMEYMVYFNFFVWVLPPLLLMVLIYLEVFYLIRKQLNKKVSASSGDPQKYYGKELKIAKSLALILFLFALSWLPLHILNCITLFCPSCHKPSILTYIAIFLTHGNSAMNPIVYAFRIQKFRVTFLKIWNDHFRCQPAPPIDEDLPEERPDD

mice [2] = test: 6 Hz minimal clonic seizure test; type: in vivo
mice [3] = test: Corneal kindled mouse model of partial seizures; type: in vivo; conditions: i.p.
mice [4] = test: Maximal electroshock; type: in vivo; conditions: for MES model, number of animals protected from convulsions: qualitative
mice [5] = test: Subcutaneous metrazol; type: in vivo; conditions: for scMET model, number of animals protected from convulsions: qualitative
hA1AR [6] = molecular target: T1, hA1AR; type: cell-based; conditions: for Agonist efficacy at A1AR (in words): cyclic AMP assay, 10 μM
hA1AR [7] = molecular target: T1, hA1AR; conditions: at 10 μM; relative to 44a (100%); ref Tosh et al.[20] or Gao et al. [21]; cited from earlier work
hA3AR = molecular target: T2, hA3AR (Homo sapiens, UniProt P0DMS8); test: Radioligand binding at hA3AR; conditions: replacement of 2-Cl with 2-H
T2 sequence (P0DMS8 1-318): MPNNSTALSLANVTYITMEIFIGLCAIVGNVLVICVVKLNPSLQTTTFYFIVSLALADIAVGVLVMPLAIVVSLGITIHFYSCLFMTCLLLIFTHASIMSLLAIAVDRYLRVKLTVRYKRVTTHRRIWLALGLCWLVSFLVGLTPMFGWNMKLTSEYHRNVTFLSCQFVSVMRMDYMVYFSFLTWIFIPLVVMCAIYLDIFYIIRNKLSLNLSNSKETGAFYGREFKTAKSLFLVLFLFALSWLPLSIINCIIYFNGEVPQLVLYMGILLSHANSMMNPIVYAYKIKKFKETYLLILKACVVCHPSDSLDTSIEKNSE

in vivo = conditions: male, CF No 1 albino, mouse, ip
rat A1AR = conditions: read-out: Kd at rat A1AR; cited from earlier work

Compound: O[C@@H]1[C@H](O)[C@@H]2C[C@@H]2[C@H]1n1cnc2c(NCC(C3CC3)C3CC3)nc(Cl)nc21 [Compound 7, (1R,2R,3S,4R,5S)-4-(2-Chloro-6-(2,2-dicyclopropylethylamino)-9H-purin-9-yl)bicyclo[3.1.0]hexane-2,3-diol]
- AR subtype selectivity in binding (in words) (hA1AR [1]): nonselective

Compound: O[C@@H]1[C@H](O)[C@@H]2C[C@@H]2[C@H]1n1cnc2c(N[C@@H](c3ccccc3)C3CC3)nc(Cl)nc21 [Compound 20, (1R,2R,3S,4R,5S)-4-(2-Chloro-6-((R)-cyclopropylphenylmethylamino)-9H-purin-9-yl)bicyclo[3.1.0]hexane-2,3-diol]
- AR subtype selectivity in binding (in words) (hA1AR [1]): bound weakly at the three ARs
- Agonist efficacy at A1AR (in words) (hA1AR [6]): did not activate the A1AR

Compound: O[C@@H]1[C@H](O)[C@@H]2C[C@@H]2[C@H]1n1cnc2c(N[C@H](c3ccccc3)C3CC3)nc(Cl)nc21 [Compound 21, (1R,2R,3S,4R,5S)-4-(2-Chloro-6-((S)-cyclopropylphenylmethylamino)-9H-purin-9-yl)bicyclo[3.1.0]hexane-2,3-diol]
- AR subtype selectivity in binding (in words) (hA1AR [1]): bound weakly at the three ARs

Compound: OC[C@H]1O[C@@H](n2cnc3c(NC4CCCC4)nc(Cl)nc32)[C@H](O)[C@@H]1O [Compound 44b, 2-chloro-N^6-cyclopentyladenosine, reference compound]
- MES model, number of animals protected from convulsions (mice [4]; 1 mg/kg i.p.): 1 out of 4 at (1 mg/kg)
- scMET model, number of animals protected from convulsions (mice [5]; 1 mg/kg i.p.): 1 out of 4 (1 mg/kg)
- TD50 at 1 h (in vivo): 0.84 mg/kg

Compound: CCNC(=O)[C@H]1O[C@@H](n2cnc3c(N)ncnc32)[C@H](O)[C@@H]1O [Compound 45, 5′-N-ethylcarboxamidoadenosine, reference compound]
- % Inhibition, cyclic AMP, A1 (maximal efficacy) (hA1AR [6]; at 10 μM, relative to effect (100%) of full agonist 44a at 10 μM, CHO cells, n = 3–5): 100±15%
- Agonist efficacy at A1AR (in words) (hA1AR [6]): full agonist

Compound: NCCNC(=O)Cc1ccc(NC(=O)Cc2ccc(Nc3ncnc4c3ncn4[C@@H]3O[C@H](CO)[C@@H](O)[C@H]3O)cc2)cc1 [Compound 46, N^6-[4-[[[4-[[[(2-Aminoethyl)amino]carbonyl]methyl]anilino]carbonyl]methyl]phenyl]adenosine, reference compound]
- MES model, number of animals protected from convulsions (mice [4]; 2 mg/kg i.p.): 4 out of 8 (2mg/kg)
- scMET model, number of animals protected from convulsions (mice [5]; 1 mg/kg i.p.): 5 out of 8 (1 mg/kg)

Compound: C[C@H](CSc1nc2ccccc2s1)Nc1nc(Cl)nc2c1ncn2[C@@H]1O[C@H](CO)[C@@H](O)[C@H]1O [NNC-21-0136, N^6-[R-(2-benzothiazolyl)thio-2-propyl]-2-chloroadenosine]
- Kd (rat A1AR): 1.16 nM

Continued, in another order:

- Agonist efficacy at A1AR (in words) (hA1AR [6]): full agonist
Compound: O[C@@H]1[C@H](O)[C@@H]2C[C@@H]2[C@H]1n1cnc2c(NC(C3CC3)C3CC3)nc(Cl)nc21 [Compound 10]
- 6 Hz model, animals protected (mice [2]; 30 mg/kg i.p. (highest dose tested)): 7 out of 8
- 6 Hz model, mice protected (mice [2]; […] i.p.): 4 out of 8
- Response in 6 Hz model (in words) (mice [2]; mice, i.p.): active
- Corneal kindled mouse model EC50 (±SE) (mice [3]; at 1 h post injection): 1.79 ± 0.71 mg/kg
- Response in corneal kindling model (in words) (mice [3]; mice): active
- MES model, number of animals protected from convulsions (mice [4]; 3 mg/kg i.p.): 1 out of 4 (3 mg/kg)
- Response in MES model (in words) (mice [4]; i.p.): inactive
- scMET model, number of animals protected from convulsions (mice [5]; 3 mg/kg i.p.): No protection (3 mg/kg)
- Response in scMET model (in words) (mice [5]; i.p.): inactive
- % Inhibition, cyclic AMP, A1 (maximal efficacy) (hA1AR [7]): 80–100%

- inhibition at 10 µM (hA1AR [1]; read-out: % inhibition of radioligand binding, A1, at 10 μM, [3H]R-PIA, CHO cells): < 50%
Compound: O[C@@H]1[C@H](O)[C@@H]2C[C@@H]2[C@H]1n1cnc2c(NC(C3CCCC3)C3CCCC3)nc(Cl)nc21 [Compound 11, (1R,2R,3S,4R,5S)-4-(2-Chloro-6-(dicyclopentylmethylamino)-9H-purin-9-yl)bicyclo[3.1.0]hexane-2,3-diol]

- AR subtype selectivity in binding (in words) (hA1AR [1]): moderately selective for the A1AR
Compound: CC(C)[C@@H](Nc1nc(Cl)nc2c1ncn2[C@H]1[C@H](O)[C@H](O)[C@@H]2C[C@@H]21)C1CC1 [Compound 14, (1R,2R,3S,4R,5S)-4-(2-Chloro-6-((R)-1-cyclopropyl-2-methyl-propylamino)-9H-purin-9-yl)bicyclo[3.1.0]hexane-2,3-diol]

- AR subtype selectivity in binding (in words) (hA1AR [1]): moderately selective for the A1AR
Compound: CC(C)[C@H](Nc1nc(Cl)nc2c1ncn2[C@H]1[C@H](O)[C@H](O)[C@@H]2C[C@@H]21)C1CC1 [Compound 15, (1R,2R,3S,4R,5S)-4-(2-Chloro-6-((S)-1-cyclopropyl-2-methyl-propylamino)-9H-purin-9-yl)bicyclo[3.1.0]hexane-2,3-diol]

- Increase of affinity at the A3AR relative to compound 10 (hA3AR): 28 fold
Compound: O[C@@H]1[C@H](O)[C@@H]2C[C@@H]2[C@H]1n1cnc2c(NC(C3CC3)C3CC3)ncnc21 [Compound 37a]

- AR subtype selectivity in binding (in words) (hA1AR [1]): nonselective
Compound: NNc1nc(NC(C2CC2)C2CC2)c2ncn([C@H]3[C@H](O)[C@H](O)[C@@H]4C[C@@H]43)c2n1 [Compound 40]

- AR subtype selectivity in binding (in words) (hA1AR [1]): weak nonselective
Compound: COC(=O)c1cnn(-c2nc(NC(C3CC3)C3CC3)c3ncn([C@H]4[C@H](O)[C@H](O)[C@@H]5C[C@@H]54)c3n2)c1 [Compound 42]

- AR subtype selectivity in binding (in words) (hA1AR [1]): weak nonselective
Compound: O=C(O)c1cnn(-c2nc(NC(C3CC3)C3CC3)c3ncn([C@H]4[C@H](O)[C@H](O)[C@@H]5C[C@@H]54)c3n2)c1 [Compound 43]
